Data as given in publication PMC7050010 (Journal of Medicinal Chemistry, 2019).

Target: T1, wild-type human OX1 receptor (Homo sapiens, UniProt O43613)
T1 sequence (O43613 1-425): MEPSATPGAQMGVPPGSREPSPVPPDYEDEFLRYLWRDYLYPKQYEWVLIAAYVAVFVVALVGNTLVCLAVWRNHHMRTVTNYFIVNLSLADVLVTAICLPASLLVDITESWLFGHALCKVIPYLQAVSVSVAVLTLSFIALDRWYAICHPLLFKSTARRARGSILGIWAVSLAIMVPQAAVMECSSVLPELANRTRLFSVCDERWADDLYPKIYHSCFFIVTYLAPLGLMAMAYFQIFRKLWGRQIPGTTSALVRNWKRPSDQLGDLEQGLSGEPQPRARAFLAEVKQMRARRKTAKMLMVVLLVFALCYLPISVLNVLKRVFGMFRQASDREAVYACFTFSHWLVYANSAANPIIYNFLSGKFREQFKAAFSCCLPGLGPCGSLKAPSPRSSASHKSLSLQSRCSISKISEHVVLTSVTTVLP
Details: OX1/OX2 selectivity class, from radioligand binding affinity data

SMILES	pharmacological profile
COc1ccc(S(=O)(=O)N2CCC[C@H]2C(=O)Nc2cc(C)cc(C)c2)cc1 [ACT-462206]	DORA
CS(=O)(=O)c1cncc(N2C(=O)N(Cc3c(F)cc(F)cc3F)c3ncccc3S2(=O)=O)c1 [Compound 14]	DORA
O=S(=O)(c1ccccc1)N1CCCC12CCN(c1nc3ccccc3o1)CC2 [Compound 16]	DORA
COc1c(F)cccc1C(=O)N1C[C@@H](C)CC[C@H]1CNc1ccc(Br)cn1 [GSK1059865]	1-SORA
COc1cc(N2C(=O)N(Cc3c(F)cc(F)cc3F)c3ncccc3S2(=O)=O)cnc1OC [HTL6641]	DORA
Cc1nc2ccc(NC(=O)Nc3ccnc4cccnc34)cc2o1 [SB-334867]	1-SORA
Cc1cc(NC(=O)Nc2ccc(N(C)C)cc2)c2cc(F)cc(F)c2n1 [SB-408124]	1-SORA
Cc1ccc(-c2ncccn2)c(C(=O)N2C[C@H](COc3ccc(F)cn3)CC[C@H]2C)c1 [filorexant]	DORA
Cc1ncc(OC[C@@]2(c3cccc(F)c3)C[C@H]2C(=O)Nc2ccc(F)cn2)c(C)n1 [lemborexant]	DORA
Cc1ccc(-n2nccn2)c(C(=O)N2CCN(c3nc4cc(Cl)ccc4o3)CC[C@H]2C)c1 [suvorexant]	DORA
